Experimental data: PubChem BioAssay AID1996
In brackets after ≈: the same amount, converted by molar mass.

Details: buffer; pH 7.4; 200.0 µM

Going from `COc1ccc(Cl)cc1NC(=O)CN1CCc2ccccc2C1` to `COc1ccccc1NC(=O)C1(c2ccccc2)CCCC1`, the solubility kinetic rises from less than 0.0004 mg/mL to 0.0079 mg/mL (≈ 26.7 µM).

`COc1ccc(C)cc1N(CC(=O)N1CCCC1)S(C)(=O)=O` and `Cc1ccc(N(CC(=O)N2CCN(Cc3ccccc3)CC2)S(C)(=O)=O)cc1C` cannot be ordered by solubility kinetic: greater than 0.049 mg/mL for the first, 0.0509 mg/mL (≈ 122 µM) for the second.

Compared with `CCOC(=O)N1CCN(C(=O)/C=C/c2ccc(OC)c(OC)c2)CC1`, `COc1ccc(/C=C/C(=O)OCC(=O)N(C)CC(=O)Nc2ccc(C)cc2)c(OC)c1` is 12-fold lower in solubility kinetic: 0.0515 mg/mL (≈ 148 µM) for the first, 0.0044 mg/mL (≈ 10.3 µM) for the second.

Going from `Cc1noc(C)c1S(=O)(=O)Nc1ccccc1Oc1ccccc1` to `Cc1ccc(O)c(NC(=O)c2cc(-c3ccccc3)on2)c1`, the solubility kinetic falls from 0.0375 mg/mL (≈ 109 µM) to less than 0.0003 mg/mL.

First: O=C(OCC(=O)N(CCc1ccccc1)Cc1ccccc1)c1cccc(O)c1
Second: Cc1ccc(N(Cc2ccccc2)C(=O)c2cccc(F)c2)cc1
The solubility kinetic of the first is 4.3-fold lower: 0.0026 mg/mL (≈ 6.68 µM) for the first, 0.0111 mg/mL (≈ 34.8 µM) for the second.

`COCCNc1nc2nonc2nc1N1C[C@H]2CC[C@H]1C2` and `CCN1CCN(c2nc(Nc3cccc(F)c3)nc(N)c2[N+](=O)[O-])CC1` cannot be ordered by solubility kinetic: greater than 0.0435 mg/mL for the first, greater than 0.0542 mg/mL for the second.

Going from `CCOC(=O)C1=C(C)N(C)C(=O)NC1c1c(O)ccc2ccccc12` (stereo not given) to `CC1CCCCC1NC(=O)COC(=O)c1cc(=O)[nH]c2ccccc12` (stereo not given), the solubility kinetic falls from greater than 0.0511 mg/mL to 0.0068 mg/mL (≈ 19.9 µM).

`Cc1ccccc1C(=O)c1cccn1CC(=O)N1CCCCC1` and `O=C(NCC(=O)N1CCN(c2ccccc2)CC1)c1ccco1` cannot be ordered by solubility kinetic: greater than 0.0466 mg/mL for the first, greater than 0.047 mg/mL for the second.

Going from `O=C(O)CN1C(=O)NC2(CCCc3ccccc32)C1=O` (stereo not given) to `CCN(C(=O)C1CCCO1)c1ccccc1` (stereo not given), the solubility kinetic falls from greater than 0.0411 mg/mL to 0.0252 mg/mL (≈ 115 µM).

`Cc1ccc(C(=O)C[n+]2ccccc2C)cc1[N+](=O)[O-].[Br-]` and `COC(=O)c1ccc(C2SCC(=O)N2Cc2ccccc2)cc1` (stereo not given) are within 1.5-fold of each other in solubility kinetic: 0.0483 mg/mL for the first, 0.0373 mg/mL (≈ 114 µM) for the second.

`O=C(O)C1CCN(C(=O)CSc2nnc3ccccn23)CC1` and `NC(=O)c1cccc(C(N)=O)n1` cannot be ordered by solubility kinetic: greater than 0.0481 mg/mL for the first, greater than 0.0248 mg/mL for the second.

First: O=[N+]([O-])c1c(NCCCO)cc(Sc2ccc(Cl)cc2)c2nonc12
Second: Cc1c(C)n(Cc2ccccc2)c2ncnc(NCCCO)c12
The solubility kinetic of the first is higher: 0.0187 mg/mL (≈ 49.1 µM) for the first, less than 0.0002 mg/mL for the second.

Going from `O=C(O)c1nn(-c2ccccc2C(F)(F)F)cc1O` to `Cc1nc(N)ncc1Sc1ccccc1`, the solubility kinetic falls from greater than 0.0408 mg/mL to 0.0052 mg/mL (≈ 23.9 µM).

First: CC1SCC(=O)N(CC(=O)NC2CCCCC2)C1=O (stereo not given)
Second: Cc1ccccc1OCCC(=O)OCC(=O)NC1CCCCC1
The solubility kinetic of the first is lower: 0.0379 mg/mL (≈ 133 µM) for the first, greater than 0.0479 mg/mL for the second.

Going from `Cc1cccc(-n2c(C)cc(C(=S)N3CCOCC3)c2C)c1C` to `Cc1ccc(-n2c(C)cc(C(=O)CN3CCOCC3)c2C)cc1C`, the solubility kinetic rises from 0.0282 mg/mL (≈ 85.8 µM) to greater than 0.049 mg/mL.

First: CC(C)c1ccc(NC(=O)CNCC(c2ccccc2)N(C)C)cc1 (stereo not given)
Second: COc1ccc(NC(=O)NC(=O)c2ccccc2)cc1
The solubility kinetic of the first is 25-fold higher: 0.0329 mg/mL (≈ 96.9 µM) for the first, 0.0013 mg/mL (≈ 4.81 µM) for the second.

First: O=C(NC1CCCCC1)c1cc(-c2cccc(Cl)c2)on1
Second: NS(=O)(=O)c1ccc(CCNC(=S)NC2CCCC2)cc1
The solubility kinetic of the first is lower: 0.0007 mg/mL (≈ 2.3 µM) for the first, greater than 0.0491 mg/mL for the second.

First: O=c1cc(CN2CCN(S(=O)(=O)c3cccc(Cl)c3)CC2)c2ccc(O)cc2o1
Second: Cc1sc2ncnc(N3CCN(S(=O)(=O)c4ccc(C(C)(C)C)cc4)CC3)c2c1C
The solubility kinetic of the first is 4.8-fold higher: 0.0133 mg/mL (≈ 30.6 µM) for the first, 0.0028 mg/mL (≈ 6.3 µM) for the second.

Compared with `CC(Cl)C(=O)N1c2ccccc2CCc2ccccc21` (stereo not given), `COc1ccccc1NC(=S)NCc1ccccc1Cl` is 32-fold lower in solubility kinetic: 0.0418 mg/mL (≈ 146 µM) for the first, 0.0013 mg/mL (≈ 4.24 µM) for the second.

Going from `CCC1CCC2(CC1)SCC(=O)N2c1ccccc1` (stereo not given) to `CN1CCC(CO)(Cc2ccccc2)CC1`, the solubility kinetic rises from 0.0057 mg/mL (≈ 20.7 µM) to 0.0286 mg/mL (≈ 130 µM) (5-fold).

Going from `O=C(CCc1ccccc1)Nc1nc2c(F)cc(F)cc2s1` to `O=C(NCCc1c[nH]c2ccccc12)/C(=C/c1cccnc1)NC(=O)c1ccco1`, the solubility kinetic rises from 0.004 mg/mL (≈ 12.6 µM) to greater than 0.0601 mg/mL.

`CCCCN(CCCC)CCCOC(=O)c1ccc(N)cc1` and `COCCN(C(=O)c1ccccc1OC)c1nnc(C)s1` cannot be ordered by solubility kinetic: greater than 0.046 mg/mL for the first, greater than 0.0461 mg/mL for the second.

`O=C(C1CC(=O)N(c2ccc(Cl)cc2)C1)N1CCOCC1` (stereo not given) and `Cc1ccc(NC(=O)CN2CCN(C(=O)c3ccco3)CC2)cc1` are within 1.5-fold of each other in solubility kinetic: 0.04 mg/mL (≈ 130 µM) for the first, 0.0478 mg/mL (≈ 146 µM) for the second.

Compared with `CN1C(=O)c2ccc(NC(=O)c3ccc(Cl)cc3Cl)cc2C1=O`, `COc1ccc(CNc2ccc3c(c2)nc(C)n3C)cc1OC` is 18-fold higher in solubility kinetic: 0.0021 mg/mL (≈ 6.01 µM) for the first, 0.0372 mg/mL (≈ 119 µM) for the second.

First: CC(c1ccccc1)N1CCc2[nH]c(=S)[nH]c(=O)c2C1 (stereo not given)
Second: CCCc1c(C)nc(N2CCN(c3ccccc3F)CC2)[nH]c1=O
The solubility kinetic of the first is 50-fold higher: 0.0199 mg/mL (≈ 69.2 µM) for the first, 0.0004 mg/mL (≈ 1.21 µM) for the second.

`CC(NCCN(C)C)C(=O)C12CC3CC(CC(C3)C1)C2.Cl` (stereo not given) and `Cc1ccc(C(C)C)c(OCC(O)CNC2CCCC2)c1.Cl` (stereo not given) cannot be ordered by solubility kinetic: 0.0524 mg/mL for the first, greater than 0.0492 mg/mL for the second.

`Cc1csc2c(=O)n(CCO)c(=O)[nH]c12` and `Cc1nn(C)c(C)c1NC(=O)CCl.Cl` cannot be ordered by solubility kinetic: greater than 0.0339 mg/mL for the first, greater than 0.0357 mg/mL for the second.

Compared with `COc1ccc(-c2nc3n(c(=O)c2C#N)CCS3)cc1OC`, `CCc1ccc(OCC2NCCc3cc(OC)c(OC)cc32)cc1` (stereo not given) is higher in solubility kinetic: 0.0119 mg/mL (≈ 37.7 µM) for the first, greater than 0.0491 mg/mL for the second.

First: C=CCN(Cc1cccc(OC)c1OC)C(=O)Oc1ccccc1
Second: CNC(=O)/C(C#N)=C/c1ccc(OCCOc2ccccc2)cc1
The solubility kinetic of the first is 4.2-fold higher: 0.0096 mg/mL (≈ 29.3 µM) for the first, 0.0023 mg/mL (≈ 7.13 µM) for the second.

Going from `C=CCNC(=O)C1=NN(c2c(F)c(F)cc(F)c2F)C(=O)CC1` to `CC1CCCN(c2ccc(F)cc2N)C1.Cl` (stereo not given), the solubility kinetic falls from greater than 0.0494 mg/mL to 0.0038 mg/mL.
